From paper PMC5540273, “Progress towards a public chemogenomic set for protein kinases and a call for contributions” (PLoS ONE, 2017) come the findings set out here.

What all share (experiment): KINOMEscan competition binding
One experiment concerns the target T1, EPHB3 (Homo sapiens, UniProt P54753).
T1 sequence (P54753 34-998): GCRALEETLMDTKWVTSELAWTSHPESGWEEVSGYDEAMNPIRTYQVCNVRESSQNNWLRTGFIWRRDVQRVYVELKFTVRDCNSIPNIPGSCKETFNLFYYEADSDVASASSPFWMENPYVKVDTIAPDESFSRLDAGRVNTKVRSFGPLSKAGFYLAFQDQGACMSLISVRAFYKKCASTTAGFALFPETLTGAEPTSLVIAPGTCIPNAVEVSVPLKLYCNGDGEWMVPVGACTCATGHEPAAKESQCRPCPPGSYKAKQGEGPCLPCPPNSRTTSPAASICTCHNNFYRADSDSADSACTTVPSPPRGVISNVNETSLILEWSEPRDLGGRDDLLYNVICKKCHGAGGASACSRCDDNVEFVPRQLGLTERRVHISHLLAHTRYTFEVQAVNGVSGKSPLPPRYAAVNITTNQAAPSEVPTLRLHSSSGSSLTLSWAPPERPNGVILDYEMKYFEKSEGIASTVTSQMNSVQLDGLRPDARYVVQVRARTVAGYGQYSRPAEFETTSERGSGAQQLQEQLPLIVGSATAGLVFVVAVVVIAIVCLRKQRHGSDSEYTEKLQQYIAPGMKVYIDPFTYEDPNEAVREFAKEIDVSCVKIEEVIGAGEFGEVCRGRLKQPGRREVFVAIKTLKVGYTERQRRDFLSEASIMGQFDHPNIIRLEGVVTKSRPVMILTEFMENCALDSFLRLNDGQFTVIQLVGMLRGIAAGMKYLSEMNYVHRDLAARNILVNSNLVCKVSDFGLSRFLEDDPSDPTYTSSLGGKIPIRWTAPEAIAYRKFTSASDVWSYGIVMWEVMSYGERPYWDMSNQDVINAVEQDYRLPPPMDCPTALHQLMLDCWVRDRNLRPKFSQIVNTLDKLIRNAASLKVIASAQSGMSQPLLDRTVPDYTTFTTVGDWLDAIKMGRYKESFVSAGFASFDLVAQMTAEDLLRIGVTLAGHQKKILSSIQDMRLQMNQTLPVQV
The note with it: read-out: %Inh EPHB3.

The target in experiment [1] is JAK3(JH1domain-catalytic) (Homo sapiens, UniProt P52333). The note with it: read-out: %Inh JAK3(JH1domain-catalytic).
Another experiment addresses CDC2L1 (Homo sapiens, UniProt P21127). The note with it: read-out: %Inh CDC2L1.
The target in the next experiment is T2, FLT3-autoinhibited (Homo sapiens, UniProt P36888).
T2 sequence (P36888 27-993): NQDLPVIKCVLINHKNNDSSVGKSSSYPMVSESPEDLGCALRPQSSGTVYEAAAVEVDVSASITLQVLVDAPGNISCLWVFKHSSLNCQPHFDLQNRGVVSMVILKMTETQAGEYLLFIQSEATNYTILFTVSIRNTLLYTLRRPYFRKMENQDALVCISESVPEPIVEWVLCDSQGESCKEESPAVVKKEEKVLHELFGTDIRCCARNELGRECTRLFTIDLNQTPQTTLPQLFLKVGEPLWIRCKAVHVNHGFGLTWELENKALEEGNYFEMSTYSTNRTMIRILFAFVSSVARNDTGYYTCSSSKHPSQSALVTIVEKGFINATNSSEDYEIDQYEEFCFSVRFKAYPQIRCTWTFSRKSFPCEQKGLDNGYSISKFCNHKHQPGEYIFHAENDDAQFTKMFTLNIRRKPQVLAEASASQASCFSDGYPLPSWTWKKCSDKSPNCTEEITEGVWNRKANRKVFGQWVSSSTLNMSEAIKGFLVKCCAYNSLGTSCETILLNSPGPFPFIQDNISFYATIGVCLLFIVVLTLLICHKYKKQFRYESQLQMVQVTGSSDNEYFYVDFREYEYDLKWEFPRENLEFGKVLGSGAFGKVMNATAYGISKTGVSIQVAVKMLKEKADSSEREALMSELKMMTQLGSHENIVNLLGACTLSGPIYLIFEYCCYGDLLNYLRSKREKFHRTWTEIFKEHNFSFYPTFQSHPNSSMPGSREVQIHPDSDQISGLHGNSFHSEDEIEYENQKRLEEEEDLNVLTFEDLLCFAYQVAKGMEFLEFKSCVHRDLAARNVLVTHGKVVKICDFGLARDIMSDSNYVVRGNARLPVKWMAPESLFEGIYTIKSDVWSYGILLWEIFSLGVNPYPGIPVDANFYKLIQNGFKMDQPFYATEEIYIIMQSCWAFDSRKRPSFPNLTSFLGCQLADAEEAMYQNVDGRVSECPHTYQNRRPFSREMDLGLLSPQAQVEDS
The note with it: read-out: %Inh FLT3-autoinhibited.

Another experiment addresses EGFR (Homo sapiens, UniProt P00533). The note with it: read-out: %Inh EGFR.
The next experiment has as its target BRAF (Homo sapiens, UniProt P15056). The note with it: read-out: %Inh BRAF.
A further experiment has as its target EIF2AK1 (Homo sapiens, UniProt Q9BQI3). The note with it: read-out: %Inh EIF2AK1.
Another experiment concerns the target T3, LKB1 (Homo sapiens, UniProt Q15831).
T3 sequence (Q15831 1-433): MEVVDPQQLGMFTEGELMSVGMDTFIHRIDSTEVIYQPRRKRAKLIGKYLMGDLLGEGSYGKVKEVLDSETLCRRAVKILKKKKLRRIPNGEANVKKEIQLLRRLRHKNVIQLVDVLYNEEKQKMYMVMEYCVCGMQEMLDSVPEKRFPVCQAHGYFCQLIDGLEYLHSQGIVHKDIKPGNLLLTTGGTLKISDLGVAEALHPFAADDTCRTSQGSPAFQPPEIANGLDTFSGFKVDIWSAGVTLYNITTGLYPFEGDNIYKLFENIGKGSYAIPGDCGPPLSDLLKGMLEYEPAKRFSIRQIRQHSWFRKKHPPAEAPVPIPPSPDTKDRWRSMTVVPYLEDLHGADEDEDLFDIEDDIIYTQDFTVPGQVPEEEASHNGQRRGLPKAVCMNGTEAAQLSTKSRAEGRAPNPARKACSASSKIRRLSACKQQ
The note with it: read-out: %Inh LKB1.

Another experiment addresses CDC2L5 (Homo sapiens, UniProt Q14004). The note with it: read-out: %Inh CDC2L5.

Sequence of BRAF (P15056 whole entry): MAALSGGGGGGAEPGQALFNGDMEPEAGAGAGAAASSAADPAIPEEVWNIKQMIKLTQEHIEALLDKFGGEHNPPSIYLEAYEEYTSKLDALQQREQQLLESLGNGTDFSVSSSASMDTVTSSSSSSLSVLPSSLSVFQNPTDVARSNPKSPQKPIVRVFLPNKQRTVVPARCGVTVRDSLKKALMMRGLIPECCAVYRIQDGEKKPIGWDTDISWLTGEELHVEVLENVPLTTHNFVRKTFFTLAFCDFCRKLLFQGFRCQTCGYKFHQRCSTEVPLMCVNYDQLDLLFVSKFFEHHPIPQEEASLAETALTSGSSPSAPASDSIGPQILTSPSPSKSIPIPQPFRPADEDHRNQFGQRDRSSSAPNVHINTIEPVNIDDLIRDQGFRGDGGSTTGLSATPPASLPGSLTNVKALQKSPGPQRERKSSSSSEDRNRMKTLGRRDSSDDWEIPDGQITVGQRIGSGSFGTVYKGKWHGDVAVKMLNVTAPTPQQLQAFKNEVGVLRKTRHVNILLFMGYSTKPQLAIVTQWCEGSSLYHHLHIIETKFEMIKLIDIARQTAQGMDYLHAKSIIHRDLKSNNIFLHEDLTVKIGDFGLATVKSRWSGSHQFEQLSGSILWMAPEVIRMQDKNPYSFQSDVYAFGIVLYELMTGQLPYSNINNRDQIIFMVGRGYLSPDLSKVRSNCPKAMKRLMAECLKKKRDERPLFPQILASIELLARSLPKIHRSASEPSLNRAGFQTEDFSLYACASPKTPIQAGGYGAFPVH
Sequence of CDC2L5 (Q14004 whole entry): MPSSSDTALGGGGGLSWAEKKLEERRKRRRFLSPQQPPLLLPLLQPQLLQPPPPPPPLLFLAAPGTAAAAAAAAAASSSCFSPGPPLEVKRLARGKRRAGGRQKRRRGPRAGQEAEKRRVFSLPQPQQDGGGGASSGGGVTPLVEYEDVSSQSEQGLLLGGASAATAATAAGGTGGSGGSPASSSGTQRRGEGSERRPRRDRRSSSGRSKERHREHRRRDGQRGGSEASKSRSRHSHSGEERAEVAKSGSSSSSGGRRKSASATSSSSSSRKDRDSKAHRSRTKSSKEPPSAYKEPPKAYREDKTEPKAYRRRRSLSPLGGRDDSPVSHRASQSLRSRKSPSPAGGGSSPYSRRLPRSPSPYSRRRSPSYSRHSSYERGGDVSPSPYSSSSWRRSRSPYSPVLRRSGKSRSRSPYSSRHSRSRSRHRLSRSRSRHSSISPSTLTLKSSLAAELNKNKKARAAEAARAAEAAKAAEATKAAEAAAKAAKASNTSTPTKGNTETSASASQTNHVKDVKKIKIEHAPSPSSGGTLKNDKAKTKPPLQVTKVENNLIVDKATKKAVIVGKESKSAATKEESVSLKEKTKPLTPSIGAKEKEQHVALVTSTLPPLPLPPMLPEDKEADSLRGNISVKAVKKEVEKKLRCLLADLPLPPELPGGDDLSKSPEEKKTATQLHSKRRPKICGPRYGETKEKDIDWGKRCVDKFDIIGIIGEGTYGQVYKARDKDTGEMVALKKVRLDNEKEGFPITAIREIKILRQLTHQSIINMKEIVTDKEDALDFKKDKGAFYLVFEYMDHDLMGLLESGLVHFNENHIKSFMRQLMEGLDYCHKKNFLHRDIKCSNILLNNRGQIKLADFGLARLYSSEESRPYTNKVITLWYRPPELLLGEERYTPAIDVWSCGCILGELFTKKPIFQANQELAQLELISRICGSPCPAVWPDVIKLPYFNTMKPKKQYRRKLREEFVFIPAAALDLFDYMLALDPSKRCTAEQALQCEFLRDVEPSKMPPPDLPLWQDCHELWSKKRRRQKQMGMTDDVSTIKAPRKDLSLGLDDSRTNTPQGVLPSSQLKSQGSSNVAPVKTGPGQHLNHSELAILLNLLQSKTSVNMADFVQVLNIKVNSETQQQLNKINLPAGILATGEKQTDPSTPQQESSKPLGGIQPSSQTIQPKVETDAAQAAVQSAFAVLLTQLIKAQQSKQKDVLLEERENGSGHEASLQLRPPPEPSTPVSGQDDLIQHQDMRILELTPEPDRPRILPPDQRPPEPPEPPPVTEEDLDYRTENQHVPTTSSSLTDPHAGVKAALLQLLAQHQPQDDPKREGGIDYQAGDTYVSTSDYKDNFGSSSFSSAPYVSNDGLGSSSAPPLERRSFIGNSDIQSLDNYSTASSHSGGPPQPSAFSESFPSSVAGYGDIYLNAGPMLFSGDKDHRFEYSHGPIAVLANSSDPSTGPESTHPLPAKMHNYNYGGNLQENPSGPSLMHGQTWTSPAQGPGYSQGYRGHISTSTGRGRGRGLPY
Sequence of EIF2AK1 (Q9BQI3 whole entry): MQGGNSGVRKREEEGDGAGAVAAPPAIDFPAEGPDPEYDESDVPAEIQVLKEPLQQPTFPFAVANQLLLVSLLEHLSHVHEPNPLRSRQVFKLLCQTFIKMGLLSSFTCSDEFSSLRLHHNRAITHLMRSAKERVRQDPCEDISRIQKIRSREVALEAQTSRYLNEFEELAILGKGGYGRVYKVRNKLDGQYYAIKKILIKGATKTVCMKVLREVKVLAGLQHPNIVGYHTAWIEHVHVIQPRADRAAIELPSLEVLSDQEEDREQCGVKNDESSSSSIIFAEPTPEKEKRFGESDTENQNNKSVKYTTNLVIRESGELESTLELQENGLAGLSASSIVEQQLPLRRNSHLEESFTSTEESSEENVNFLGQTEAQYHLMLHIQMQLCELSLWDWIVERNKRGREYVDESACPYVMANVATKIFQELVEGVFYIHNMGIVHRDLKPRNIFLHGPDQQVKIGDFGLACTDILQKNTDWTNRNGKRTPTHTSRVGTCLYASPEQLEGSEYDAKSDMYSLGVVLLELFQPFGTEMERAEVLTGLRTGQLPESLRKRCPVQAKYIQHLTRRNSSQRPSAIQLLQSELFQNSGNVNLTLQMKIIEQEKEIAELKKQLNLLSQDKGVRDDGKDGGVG
Sequence of JAK3(JH1domain-catalytic) (P52333 813-1124 limits assumed): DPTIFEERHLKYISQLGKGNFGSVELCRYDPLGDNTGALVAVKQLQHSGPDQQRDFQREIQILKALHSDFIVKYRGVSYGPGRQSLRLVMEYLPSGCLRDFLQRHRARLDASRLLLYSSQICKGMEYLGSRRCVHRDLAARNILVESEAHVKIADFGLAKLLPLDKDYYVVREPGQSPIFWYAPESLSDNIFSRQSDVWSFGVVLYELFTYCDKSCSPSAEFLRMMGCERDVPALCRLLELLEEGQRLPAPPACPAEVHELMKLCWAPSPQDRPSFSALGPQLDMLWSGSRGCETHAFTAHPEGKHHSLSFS
Sequence of EGFR (P00533 25-1210): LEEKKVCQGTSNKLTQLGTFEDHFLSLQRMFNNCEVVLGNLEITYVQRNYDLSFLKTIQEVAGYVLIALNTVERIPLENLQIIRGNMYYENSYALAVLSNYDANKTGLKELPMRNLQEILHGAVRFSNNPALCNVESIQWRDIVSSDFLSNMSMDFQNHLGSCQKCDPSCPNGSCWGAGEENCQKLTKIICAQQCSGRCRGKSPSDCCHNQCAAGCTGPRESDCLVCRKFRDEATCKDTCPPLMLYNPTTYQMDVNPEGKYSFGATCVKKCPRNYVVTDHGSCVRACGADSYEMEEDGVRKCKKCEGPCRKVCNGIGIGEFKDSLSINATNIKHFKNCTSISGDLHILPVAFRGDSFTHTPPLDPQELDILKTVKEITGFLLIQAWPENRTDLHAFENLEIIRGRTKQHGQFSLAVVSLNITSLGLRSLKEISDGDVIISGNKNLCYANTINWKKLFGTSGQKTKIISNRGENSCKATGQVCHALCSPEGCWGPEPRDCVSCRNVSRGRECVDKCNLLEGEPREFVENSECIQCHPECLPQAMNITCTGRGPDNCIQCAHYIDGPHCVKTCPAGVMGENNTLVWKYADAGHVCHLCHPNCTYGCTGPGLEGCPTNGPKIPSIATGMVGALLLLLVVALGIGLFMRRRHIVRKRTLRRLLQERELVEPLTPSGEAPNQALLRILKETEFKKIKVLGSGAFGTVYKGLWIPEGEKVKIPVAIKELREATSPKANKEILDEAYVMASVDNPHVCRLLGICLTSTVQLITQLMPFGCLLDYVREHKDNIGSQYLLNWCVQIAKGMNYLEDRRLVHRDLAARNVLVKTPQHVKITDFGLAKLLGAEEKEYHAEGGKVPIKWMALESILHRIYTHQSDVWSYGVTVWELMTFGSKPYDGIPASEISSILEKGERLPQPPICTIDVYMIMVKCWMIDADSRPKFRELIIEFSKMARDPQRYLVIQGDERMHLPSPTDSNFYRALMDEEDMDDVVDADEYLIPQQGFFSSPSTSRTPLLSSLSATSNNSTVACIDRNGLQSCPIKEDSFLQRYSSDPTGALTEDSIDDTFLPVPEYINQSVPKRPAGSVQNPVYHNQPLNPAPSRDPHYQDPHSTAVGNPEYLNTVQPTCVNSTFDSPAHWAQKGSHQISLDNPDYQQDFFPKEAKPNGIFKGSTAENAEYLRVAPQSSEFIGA

Take `Cn1cc(-c2cnc(N)c3c(-c4ccc5c(c4)CCN5C(=O)Cc4ccccc4)csc23)cn1` [UNC10225012A]: the inhibition at 1 µM on EPHB3 stood at 4%; in experiment [1], 0%; on CDC2L1 it was 4%; on FLT3-autoinhibited it was 0%; on EGFR it was 3%; on BRAF, 0%. Further, the inhibition at 1 µM on EIF2AK1 was determined as 7%; at LKB1 it was 0%; on CDC2L5, 0%.
On to `CS(=O)(=O)Cc1ccc(Nc2nccc(-c3c(-c4cccc(NC(=O)C5CCCCC5)c4)nn4ncccc34)n2)cc1` [UNC10225159A], for which the inhibition at 1 µM is 5% at EPHB3; 43% in experiment [1]; 0% on CDC2L1; 25% at FLT3-autoinhibited; 68% at EGFR; 20% on BRAF. Also, the inhibition at 1 µM on EIF2AK1 was found to be 22%; at LKB1, 0%; on CDC2L5 it was 30%.
On to `Cc1ccc(NC(=O)Nc2cccc(C(F)(F)F)c2)cc1` [UNC10225187A], for which the inhibition at 1 µM was 0% on EPHB3; 0% in experiment [1]; 3% on CDC2L1; 0% at FLT3-autoinhibited; 0% on EGFR; 0% at BRAF. In addition, the inhibition at 1 µM on EIF2AK1 is 0%; at LKB1, 16%; on CDC2L5, 0%.
On to `COc1cccc(OC)c1C(=O)Nc1cccc(-c2nn3ccccc3c2-c2ccnc(Nc3cccc(F)c3)n2)c1` [UNC10225310A], for which the inhibition at 1 µM at EPHB3 stood at 8%; in experiment [1], 0%; on CDC2L1, 0%; on FLT3-autoinhibited, 0%; on EGFR, 91.7%; on BRAF, 17%. The inhibition at 1 µM on EIF2AK1 is 0%; at LKB1, 6%; on CDC2L5, 1%.
For `O=c1cc(N2CCOCC2)nc2n(Cc3cccc(Cl)c3Cl)c(C3CC3)nn12` [UNC10225469A], the inhibition at 1 µM at EPHB3 turned out to be 7%; in experiment [1] it was 0%; on CDC2L1, 0%; on FLT3-autoinhibited, 0%; on EGFR it was 0%; on BRAF, 0%. The figures for the inhibition at 1 µM on EIF2AK1, at LKB1 and at CDC2L5 were 0%, 15% and 0%, respectively.
